{"source": "paper PMC7714071", "about": "“Interaction of amyloid beta with humanin and acetylcholinesterase is modulated by ATP” (FEBS Open Bio, 2020)", "key": {"[1]": {"system": "AChE", "experiment": "ELISA, binding of biotinylated-Aβ40 to immobilised AChE", "set-up": "species or system human", "source_text": "Most of the material used was purchased as we previously reported. Nitrocellulose membranes, PBS, ATP, recombinant human AChE (C1682, UniProt accession ID: C9JD78), streptavidin‐conjugated horseradish peroxidase (HRP) conjugate, Ponceau S solution, PMSF, and HS sodium salt from bovine kidney were purchased from Sigma‐Aldrich (St. Louis, MO, USA). Mouse IgG isotype control (mIgG), ultra 3,3′,5,5′‐tetramethylbenzidine (TMB)‐ELISA substrate solution, Halt Protease and Phosphatase Inhibitor Cocktail, HN polyclonal antibody (rabbit, PA1‐41610), and Nunc MaxiSorpTM 96‐well flat bottom plates were from Thermo Fisher (Waltham, MA, USA). […]\nELISAs were carried out as we previously reported. […] TBST was then used to wash the wells 4× before proceeding in one of two ways: (a) biotinylated samples were analyzed by adding 100 µL streptavidin–HRP conjugate in TBST (1 : 2500 dilution) to the samples followed by incubation for 3 h at RT on a shaker, or (b) samples without biotin were analyzed by adding 100 µL TBST containing the primary antibody as per the manufacturer's recommendation, incubating for 3 h at RT on a shaker, followed by washing the wells 4× with TBST. […] The reaction was stopped with 100 µL 2 M H2SO4 after incubating at RT for 0.5–15 min, resulting in a yellow color change, measured by absorbance at 450 nm. […] Statistical analysis was determined by the […]"}, "[2]": {"system": "AChE-Aβ interaction", "details": "cited from earlier work", "source_text": "Access to the central domain of Aβ (residues 17–24) flanked by Lys‐16 and Lys‐28, known to be a critical structural element in fibrillar Aβ aggregates, might be regulated by binding of AChE and HN to their overlapping binding sites on Aβ. […] Moreover, we s ..."}}}
{"compound": "Nc1ncnc2c1ncn2[C@@H]1O[C@H](COP(=O)(O)OP(=O)(O)OP(=O)(O)O)[C@@H](O)[C@H]1O", "note": "[ATP, Adenosine triphosphate]", "values": [{"measurement": "effect of ATP on affinity of AChE to Aβ40", "setting": "[1]; 200 μM ATP, 30 min preincubation RT, pH 7.5, 10 mM MgCl2, three experiments in triplicate, Fig. 3A", "result": "reduced the affinity"}]}
{"compound": "Humanin [HN]", "values": [{"measurement": "effect of HN on binding of AChE to Aβ", "setting": "[2]", "result": "it is not abolished"}]}
{"compound": "heparan sulfate [HS]", "values": [{"measurement": "effect of HS on binding of Aβ40 to AChE", "setting": "[1]; AChE 10 nM on wells, biotinylated-Aβ 1 μM, increasing HS, three independent assays, Fig. 2C", "result": "No effects"}]}
